These results are taken from patent publication US12559504B2, “Benzotriazole derivative” (UBE CORPORATION, priority 2019, dated 2026).

For series [1], the target named is T1, GST fusion human Keap1 (amino acid residue: 325-624) protein (Homo sapiens, UniProt Q14145).
T1 construct: GST fusion human Keap1 (amino acid residue: 325-624) protein; purchased Protein tech Ag0779
The series is described as follows: Keap1-Nrf2 binding inhibition test (fluorescence polarization). Conditions: compound concentration of 100 nM; read-out: inhibition rate. As to the method: The inhibitory activity of each test compound on the binding between Nrf2 and Keap1 was measured by the fluorescence polarization method. A solution consisting of 20 mM tris-hydrochloride pH7.5 (NIPPON GENE CO., LTD., REF: 318-90225), 150 mM NaCl [FUJIFILM Wako Pure Chemical. Corporation, REF: 191-01665], 0.05% Tween 20 (BioRAD, REF: 161-0781), and 5 mM DTT (FUJIFILM Wako Pure Chemical Corporation, REF: 049-08972) was used as a buffer solution. To a test compound solution (70 μL) adjusted to each concentration with 10% DMSO (FUJIFILM Wako Pure Chemical Corporation, REF: 043-07216) was added a buffer solution (350 μL) comprising 6 nM FITC-labeled Nrf2 peptide (FITC-Ahx-LDEETGEFL-NH2, Invitrogen) and 0.2 mg/mL of BSA (FUJIFILM Wako Pure Chemical Corporation, REF: 017-22231). Each 120 μL of the resulting mixture was dispensed into a black 96 well plate, and a buffer solution (80 μL) comprising 2.5 nM GST fusion human Keap1 (amino acid residue: 325-624) protein (Protein tech, REF: Ag0779) was added thereto. A Keap1-free buffer solution was added to some wells to prepare negative controls. Meanwhile, compound-free wells were used as positive controls. The plate was incubated at room temperature for 30 minutes, and each fluorescence polarization at excitation wavelength of 482 nm and fluorescence wavelength of 530 nm was measured by using a plate reader Clariostar (BMG Labtech). The fluorescence polarization of the negative control was set to be 100% inhibition, fluorescence polarization of the positive control was set to be 0% inhibition, and the inhibition rate of each test compound at 100 nM was calculated by using the following equation. Inhibition rate (%)=100−((Fluorescence polarization when test compound was added−Fluorescence polarization of negative control)/(Fluorescence polarization of positive control−Fluorescence polarization of negative control))×100
(Polarisation of emitted light reports the rotation of a fluorescent probe.)

The subject of a further series is NQO1. The experiment in a line: NQO1 expression induction test in mouse kidney (single administration). It counts as in vivo. Conditions: BALB/c mouse kidney, 6 hours after administration, ratio to control group. As to the method: Each test compound solution for administration was prepared by dissolving or suspending each test compound into a 0.5 w/v % aqueous solution of methylcellulose (0.5% MC) (manufactured by Wako Pure Chemical Industries, Ltd.).
Each prepared test compound was orally administered to a BALB/c mouse (female, provided by Charles River Laboratories Japan, Inc.). Non-treated group was used as a control group. After 6 hours from the administration, each mouse was anesthetized with isoflurane, and euthanized with bloodletting by incising a lower aorta. Immediately, the left kidney was excised, cut into small pieces, and then the cut kidney pieces were transferred to RNA later (Thermo Fisher Scientific).
Then, mRNA was extracted from the collected kidney pieces by using NucleoSpin (registered trademark) RNA Kit (Takara Bio Inc.), each concentration was quantified by FlexStation3 (Molecular Devices), and then the concentration was adjusted to a constant concentration. A reverse transcription synthesis of cDNA was carried out from the mRNA with the constant concentration by using PrimeScript™ RT reagent Kit with gDNA Eraser and PCR Thermal Cycler (Takara Bio Inc.). Then, in addition to the resulting cDNA, SYBR (registered trademark) Premix Ex Taq™ II and NQO1, GAPDH primer (Takara Bio Inc.) were used to carry out Real-time PCR by PCR Thermal Cycler Dice Real time (Takara Bio Inc.), and the NQO1 expression was quantified by using the GAPDH expression as the reference.
In order to evaluate the NQO1 expression induction in each group, the NQO1 expression induction ratio was calculated by using the following equation. (NQO1 expression induction ratio)=(Average NQO1 expression in test compound administered group)[…](Average NQO1 expression in control group)

The nature of series [2]: Metabolism test using human liver microsome fractions. It counts as in vitro ADME. Conditions: human liver microsomes, test compound 10 μmol/L, NADPH and UDP-glucuronic acid, 37° C. As to the method:
A reaction composition solution (comprising NADPH Regenerating System, Solution A (manufactured by Corning Inc., REF. 451220) (50 μL), NADPH Regenerating System, Solution B (manufactured by Corning Inc., REF. 451200) (10 μL), 250 mM UDP-glucuronic acid (40 μL), UGT Reaction Mix Solution B (manufactured by Corning Inc., REF. 451320) (200 μL), and distilled water (640 μL)) in which human liver microsomes (manufactured by Xenotech, Cat. No. H610) or monkey liver microsomes (manufactured by Xenotech, Cat. No. P2000) (corresponding to 1 mg of protein) were suspended was prepared. After the solution was incubated at 37° C. for 5 minutes, each test compound dissolved into DMSO (manufactured by FUJIFILM Wako Pure Chemical Corporation, Code No. 043-07216) was added to the solution so that the final concentration was set to be 10 μmol/L, and a reaction was initiated. After 0, 5, 10, 15, 20, and 30 minute(s) from the initiation of the metabolism reaction, 100 μL of the reaction solution was taken out of the reaction system, and added to 200 μL of acetonitrile to stop the reaction. After the reaction was completed, the reaction solution was subjected to a work-up such as deproteinization, and then subjected to an UV-HPLC analysis to carry out the following analysis.
The peak area of each test compound was calculated by LabSolution software (Shimadzu Corporation), and the residual ratio (%) at each culture time of test material was calculated by the following equation. Residual ratio (%)=Peak area at each culture time[…]Peak area at 0 (initial time)
Next, the residual amount (nmol/mg/mL) at each culture time of test material was calculated by the following equation. Residual amount (nmol/mg/mL)=Initial concentration of reaction solution (10 nmol/mg/mL)×residual ratio÷100
Finally, a graph in which the reaction time was plotted at horizontal axis and the residual amount was plotted at longitudinal axis was prepared on Excel, and the inclination was calculated as the elimination rate (pmol/min/mg-P) within the time range in which the graph was deemed linear.

Bounds are passed on as bounds.

T1 sequence (Q14145 325-624): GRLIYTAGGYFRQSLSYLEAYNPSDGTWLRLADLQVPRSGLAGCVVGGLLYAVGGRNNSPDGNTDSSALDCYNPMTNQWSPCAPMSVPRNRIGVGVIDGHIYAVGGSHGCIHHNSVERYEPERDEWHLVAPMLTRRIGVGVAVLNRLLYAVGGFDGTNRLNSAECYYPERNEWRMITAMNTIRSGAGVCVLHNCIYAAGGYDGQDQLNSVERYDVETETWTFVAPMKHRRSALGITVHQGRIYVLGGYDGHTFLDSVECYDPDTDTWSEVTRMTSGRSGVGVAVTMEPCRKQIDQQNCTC

One may read the inhibition as the change of the read-out against control, counted positive when it falls. In general, fold induction refers to the signal under treatment as a multiple of the control signal. Turning to `CC[C@@H]1CN(Cc2cc(C(c3ccc4c(nnn4C)c3C)C(C)(C)C(=O)O)ccc2C)Cc2ncc3ccccc3c2O1` (single isomer, unassigned) [Example 45], the inhibition at 0.1 µM in series [1] was not below 50%. For the same compound, the fold induction at 10 mg/kg in the series on NQO1 (Mus musculus, po, 6 h) is more than 6. In addition, the Human metabolic rate entry in series [2] is “A (metabolic rate<100 pmol/min/mg protein)”.

As to `CC[C@@H]1CN(Cc2cc(C(c3ccc4c(nnn4C)c3C)C(C)(C)C(=O)O)ccc2C)Cc2cc3c(cc2O1)OC(F)(F)O3` (single isomer, unassigned) [Example 29], in series [1], the inhibition at 0.1 µM was not below 50%. Moreover, in the series on NQO1 (Mus musculus, po, 6 h), the fold induction at 10 mg/kg was more than 6. The Human metabolic rate result in series [2] was “A (metabolic rate<100 pmol/min/mg protein)”.

Regarding `CCCC1CN(Cc2cc(C(c3ccc4c(nnn4C)c3C)C(C)(C)C(=O)O)ccc2C)Cc2cc3ncccc3cc2O1` (stereo not shown) [Example 78-(b), 3-(1,4-dimethyl-1H-benzo[d][1,2,3]triazol-5-yl)-2,2-dimethyl-3-(4-methyl-3-((2-propyl-2,3-dihydro-[1,4]oxazepino[7,6-g]quinolin-4 (5H)-yl)methyl)phenyl)propanoic Acid], the “NQO1 expression induction activity” value with NQO1 (Dose 20 mg/kg, oral, 20 mg/kg) is “B (3<NQO1 expression induction ratio≤6)”. Further, the Human metabolic rate entry in series [2] was “B (100≤metabolic rate<150 pmol/min/mg protein)”.

For the compound `CC[C@@H]1CN(Cc2cc(C(c3ccc4c(nnn4C)c3C)C(C)(C)C(=O)O)ccc2C)Cc2cc3ncccc3cc2O1` (single isomer, unassigned) [Example 41], the inhibition at 0.1 µM in series [1] is not below 50%. Also, the fold induction at 10 mg/kg with NQO1 (Mus musculus, po, 6 h) was more than 6. Further, in series [2], the Human metabolic rate result is “A (metabolic rate<100 pmol/min/mg protein)”.

Regarding `CC[C@@H]1CN(Cc2cc(C(c3ccc4c(nnn4C)c3C)C(C)(C)C(=O)O)ccc2C)Cc2cc3c(cc2O1)CCC3` (single isomer, unassigned) [Example 31], the inhibition at 0.1 µM in series [1] was not below 50%. Besides, in the series with NQO1 (Mus musculus, po, 6 h), the fold induction at 10 mg/kg fell in the range of 3 to 6. Also, the Human metabolic rate entry in series [2] is reported as “B (100≤metabolic rate<150 pmol/min/mg protein)”.

In the case of `CC[C@@H]1CN(Cc2cc(C(c3ccc4c(nnn4C)c3C)C(C)(C)C(=O)O)ccc2C)Cc2ccc3c(c2O1)CCC3` (single isomer, unassigned) [Example 35], the inhibition at 0.1 µM in series [1] is not below 50%. For the same compound, the fold induction at 10 mg/kg with NQO1 (Mus musculus, po, 6 h) is more than 6. Moreover, the Human metabolic rate result in series [2] is given as “B (100≤metabolic rate<150 pmol/min/mg protein)”.

With `CC[C@H]1CN(Cc2cc(C(c3ccc4c(nnn4C)c3C)C(C)(C)C(=O)O)ccc2C)Cc2cc3ncccc3cc2O1` (single isomer, unassigned; diastereomer 1) [Example 57-(c)], the inhibition at 0.1 µM in series [1] is not below 50%. Besides, in series [2], the Human metabolic rate result is on record as “C (150≤metabolic rate<200 pmol/min/mg protein)”.

For the compound `CC[C@@H]1CN(Cc2cc(C(c3ccc4c(nnn4C)c3C)C(C)(C)C(=O)O)ccc2C)Cc2cc3cccnc3cc2O1` (single isomer, unassigned) [Example 39], in series [1], the inhibition at 0.1 µM is not below 50%. The fold induction at 10 mg/kg in the series on NQO1 (Mus musculus, po, 6 h) was 3 to 6. In series [2], the Human metabolic rate result was “A (metabolic rate<100 pmol/min/mg protein)”.

Regarding `CC[C@@H]1CN(Cc2cc(C(c3ccc4c(nnn4C)c3C)C(C)(C)C(=O)O)ccc2C)Cc2c(ccc3cn[nH]c23)O1` (single isomer, unassigned) [Example 43], in series [1], the inhibition at 0.1 µM was not below 50%. For the same compound, the fold induction at 10 mg/kg with NQO1 (Mus musculus, po, 6 h) is more than 6. For the same compound, the Human metabolic rate entry in series [2] is “A (metabolic rate<100 pmol/min/mg protein)”.

Take `CC[C@@H]1CN(Cc2cc(C(c3ccc4c(nnn4C)c3C)C(C)(C)C(=O)O)ccc2C)Cc2cnc3ccccc3c2O1` (single isomer, unassigned) [Example 47]: the inhibition at 0.1 µM in series [1] is not below 50%. Also, the fold induction at 10 mg/kg with NQO1 (Mus musculus, po, 6 h) is more than 6. In series [2], the Human metabolic rate entry is “B (100≤metabolic rate<150 pmol/min/mg protein)”.

Take `CC[C@@H]1CN(Cc2cc(C(c3ccc4c(nnn4C)c3C)C(C)(C)C(=O)O)ccc2C)Cc2nc3ccccc3cc2O1` (single isomer, unassigned) [Example 37]: the inhibition at 0.1 µM in series [1] was not below 50%. For the same compound, the fold induction at 10 mg/kg in the series on NQO1 (Mus musculus, po, 6 h) is more than 6. The Human metabolic rate entry in series [2] is “A (metabolic rate<100 pmol/min/mg protein)”.

Regarding `CC[C@H]1CN(Cc2cc(C(c3ccc4c(nnn4C)c3C)C(C)(C)C(=O)O)ccc2C)Cc2ncc3ccccc3c2O1` (single isomer, unassigned) [Example 89-(b)], the inhibition at 0.1 µM in series [1] was not below 50%. Moreover, in the series on NQO1 (Mus musculus, po, 6 h), the fold induction at 10 mg/kg was 3 to 6. In series [2], the Human metabolic rate entry is reported as “E (metabolic rate≥250 pmol/min/mg protein)”.

Regarding `CC[C@@H]1CN(Cc2cc(C(c3ccc4c(nnn4C)c3C)C(C)(C)C(=O)O)ccc2C)Cc2cc3c(cc2O1)CCCC3` (single isomer, unassigned) [Example 33], the inhibition at 0.1 µM in series [1] was not below 50%. The fold induction at 10 mg/kg in the series with NQO1 (Mus musculus, po, 6 h) lay within 3 to 6. Further, the Human metabolic rate entry in series [2] was “A (metabolic rate<100 pmol/min/mg protein)”.

As to `CCCC1CN(Cc2cc(C(c3ccc4c(nnn4C)c3C)C(C)(C)C(=O)O)ccc2C)Cc2cc3ncccc3cc2O1` (stereo not shown) [Example 77-(b), 3-(1,4-dimethyl-1H-benzo[d][1,2,3]triazol-5-yl)-2,2-dimethyl-3-(4-methyl-3-((2-propyl-2,3-dihydro-[1,4]oxazepino[7,6-g]quinolin-4 (5H)-yl)methyl)phenyl)propanoic Acid], in series [1], the inhibition at 0.1 µM was not below 50%. The fold induction at 20 mg/kg in the series on NQO1 (Mus musculus, po, 6 h, Dose 20 mg/kg) was more than 6. Besides, the Human metabolic rate entry in series [2] is given as “B (100≤metabolic rate<150 pmol/min/mg protein)”.
